System: ENaC
Test: Benzamil-sensitive Isc (ENaC activity) in differentiated HBECs, Ussing chamber
Assay type: cell-based, human
Experimental: High individual variation in benzamil-sensitive current and TEER in HBECs. In an Ussing chamber-based experimental design, basal short-circuit current (Isc) and transepithelial electrical resistance (TEER) were recorded in differentiated HBECs from two lung donors that were grown on snapwells at an air-liquid interface for 28 to 35 days. Benzamil, a potent ENaC blocker was used to determine ENaC activity by calculating benzamil-sensitive Isc from changes in Isc that occur 15 minutes after adding 6 μM benzamil to the apical side of cells. […] Therefore, normalized data were used for all subsequent experiments for statistical analyses relating to FIGS. 13-18.
Basal treatment with cytokines [IL-13 (Abcam), IL-4 (PeproTech), TNF-α, IFN-γ and TGF-β1 (R&D Systems)] diluted in ALI medium started as early as day 14 post differentiation. Individual cytokines or cytokine cocktails were added to the culture medium at the desired concentrations and cells were incubated with the cytokines for a maximum of 16 days. ALI medium containing cytokines was changed every two days. Age-matched HBECs were assigned to the following treatment groups:
II Time-dependent studies: These studies were done using a concentration that ensured maximum inhibition of benzamil-sensitive Isc and TEER. HBECs were treated with respective cytokines for 2, 4, 6, 8, 10, 12, 14, or 16 days. IFN-γ, TNF-α or TGF-β1 at 1 ng/mL, IL-13 at 20 ng/mL and IL-4 at 2 ng/mL were used.
III Cytokine cocktails: were prepared using IFN-γ and TNF-α at 0.05, 0.5, 2.5, 5 and 10 ng/mL while TNF-α, IFN-γ and TGF-β1 at 1 ng/mL for each of the cytokines was added to the culture media for 7 days.
Ussing chamber experiments: Snapwells with differentiated HBECs that were incubated with cytokines or age-matched HBECs without cytokine exposure were mounted in Ussing chambers (Physiologic Instruments), and cells were either bathed in isotonic ringer solution containing 113.8 mM Na^+, 93.6 mM Cl^−, 25 mM HCO3^−, 5.2 mM K^+, 2.4 mM HPO4^−, 0.4 mM H2PO4^−, 1.2 mM Mg^2+, 1.2 mM Ca^2+, and 75 mM mannitol, or in AA-EC01. Glucose (5 mM) was added to the basal side, and chambers were bubbled with 95% O2 and 5% CO2 at 37° C. AA-EC01 contained 8 mM lysine, 8 mM tryptophan, 8 mM arginine, 8 mM glutamine, and 1.2 mM tyrosine, and AANC contained 8 mM leucine, 8 mM cysteine, 8 mM isoleucine, 8 mM aspartic acid and 8 mM glutamate (Ajinomoto), both diluted in an electrolyte solution containing 113.8 mM Na^t, 93.6 mM Cl^−, 25 mM HCO3^−, 5.2 mM K^+, 2.4 mM HPO4^−, 0.4 mM H2PO4^−, 1.2 mM Mg′, 1.2 mM Ca^2+ and 40 mM mannitol at pH 7.4 and 300 mOsm. Cell cultures were allowed to equilibrate in the Ussing chambers for 30 minutes while continuously voltage clamped to 0 mV. Basal short circuit current (Isc) and transepithelial electrical resistance (TEER) were recorded at 30-second intervals, and benzamil-sensitive Isc was calculated from the difference of basal Isc recorded after 30 minutes and Isc measured at 15 minutes after adding 6 μM of benzamil (ThermoFisher) to the apical side.
Statistical analysis: Results are presented as mean±standard error of mean (SEM). Analyses were performed with OriginPro 2018 software package. For each treatment group, values were tested for normal distribution using the Shapiro-Wilk normality test. […] The values were normalized to controls within the group, and data were pooled for comparison between groups. Kruskal-Wallis test was used for comparing the overall effect of ringer, AA-EC01 and AANC on benzamil-sensitive Isc and TEER, and Mann Whitney U test was used for pairwise comparison within the group and for comparison between basal values for each cytokine at zero ng/mL or day zero with each concentration and time period studied. P<0.05 was considered significant, and NS indicates not significant.

“IL-13: Th2 cytokine (Abcam) added to HBEC culture medium” was tested, and the “benzamil-sensitive Isc, normalized to control” value (IL-13 0.1 ng/mL, 14 days) was 50.9±9.6%, the “day by which benzamil-sensitive Isc was completely suppressed” value (IL-13 20 ng/mL, 16-day incubation) was at most 8 days and the “benzamil-sensitive Isc, of baseline value” (IL-13 20 ng/mL, day 2) was 25.0±5%. For the same substance, the “concentration at which benzamil-sensitive Isc was completely abolished” value (IL-13, 14 days) was 8 ng/mL.
